{
  "source": "patent US9169315B2",
  "about": "“Heparin cofactor II fragments with anti-inflammatory and anti-coagulant activity” (XIMMUNE AB, priority 2009, dated 2015)",
  "key": {"human blood": {"tested_on": "human blood", "settings": "corresponding number for LL-37 (Malmsten et al., in manuscript); cited from earlier work"}, "E. faecalis": {"tested_on": "E. faecalis", "assay": "MIC, microtiter broth dilution", "assay_type": "cell-based", "settings": "E. faecalis Clinical isolate 2374", "experimental": "(§1) MIC assay was carried out by a microtiter broth dilution method as previously described in the NCSLA guidelines (Wiegand, I., Hilpert, K. & Hancock, R. E. Agar and broth dilution methods to determine the minimal inhibitory concentration (MIC) of antimicrobial substances. Nat Protoc 3, 163-175 (2008)). In brief, fresh overnight colonies were suspended to a turbidity of 0.5 units and further diluted in Mueller-Hinton broth (Becton Dickinson). For determination of MIC, peptides were dissolved in water at concentration 10 times higher than the required range by serial dilutions from a stock solution. Ten μl of each concentration was added to each corresponding well of a 96-well microtiter plate (polypropylene, Costar Corp.) and 90 μl of bacteria (1×10^5) in MH medium added. The plate was incubated at 37° C. for 16-18 h. MIC was taken as the lowest concentration where no visual growth of bacteria was detected."}, "S. aureus": {"tested_on": "S. aureus", "assay_type": "cell-based, Staphylococcus aureus", "experimental": "as §1"}, "S. pneumoniae": {"tested_on": "S. pneumoniae", "assay_type": "cell-based", "experimental": "as §1"}, "S. pyogenes": {"tested_on": "S. pyogenes", "assay_type": "cell-based", "settings": "S. pyogenes AP1", "experimental": "as §1"}, "P. aeruginosa": {"tested_on": "P. aeruginosa", "assay_type": "cell-based, Pseudomonas aeruginosa", "experimental": "as §1"}, "E. coli": {"tested_on": "E. coli", "assay_type": "cell-based, Escherichia coli", "experimental": "as §1"}},
  "note": "Where two headings read alike, the source gives them in different places. No end group written: not given here.",
  "data": [
    {"compound": "CC[C@H](C)[C@H](NC(=O)[C@H](CCCCN)NC(=O)[C@H](CCC(=O)O)NC(=O)[C@H](CCCCN)NC(=O)[C@H](CO)NC(=O)[C@H](CCCCN)NC(=O)[C@H](CCCNC(=N)N)NC(=O)[C@H](Cc1ccccc1)NC(=O)[C@H](Cc1ccccc1)NC(=O)[C@H](CC(=O)O)NC(=O)CNC(=O)[C@H](CC(C)C)NC(=O)[C@@H](N)CC(C)C)C(=O)NCC(=O)N[C@@H](CCCCN)C(=O)N[C@@H](CCC(=O)O)C(=O)N[C@@H](Cc1ccccc1)C(=O)N[C@@H](CCCCN)C(=O)N[C@@H](CCCNC(=N)N)C(=O)N[C@H](C(=O)N[C@H](C(=O)N[C@@H](CCC(N)=O)C(=O)N[C@@H](CCCNC(=N)N)C(=O)N[C@H](C(=O)N[C@@H](CCCCN)C(=O)N[C@@H](CC(=O)O)C(=O)N[C@@H](Cc1ccccc1)C(=O)N[C@@H](CC(C)C)C(=O)N[C@@H](CCCNC(=N)N)C(=O)N[C@@H](CC(N)=O)C(=O)N[C@@H](CC(C)C)C(=O)N[C@H](C(=O)N1CCC[C@H]1C(=O)N[C@@H](CCCNC(=N)N)C(=O)N[C@H](C(=O)N[C@@H](CCC(=O)O)C(=O)N[C@@H](CO)C(=O)O)[C@@H](C)O)C(C)C)[C@@H](C)CC)C(C)C)[C@@H](C)CC", "note": "[LL-37]", "values": [
      {"measurement": "Accompanying hemolysis in infected human blood", "setting": "human blood", "value": "~8", "unit": "%"}
    ]},
    {"compound": "ILRWPWWPWRRK-NH2 [Omiganan, reference compound]", "values": [
      {"measurement": "MIC", "setting": "E. faecalis", "value": 160, "unit": "µM"},
      {"measurement": "MIC", "setting": "S. aureus; S. aureus ATCC 29213", "value": 10, "unit": "µM"},
      {"measurement": "MIC", "setting": "S. aureus; S. aureus Clinical isolate 1086", "value": 10, "unit": "µM"},
      {"measurement": "MIC", "setting": "S. aureus; S. aureus Clinical isolate 1088", "value": 20, "unit": "µM"},
      {"measurement": "MIC", "setting": "S. aureus; S. aureus Clinical isolate 1090", "value": 80, "unit": "µM"},
      {"measurement": "MIC", "setting": "S. aureus; S. aureus Clinical isolate 14312", "value": 20, "unit": "µM"},
      {"measurement": "MIC", "setting": "S. aureus; S. aureus Clinical isolate 16065", "value": 5, "unit": "µM"},
      {"measurement": "MIC", "setting": "S. pneumoniae; S. pneumoniae Clinical isolate I-95", "value": 1.25, "unit": "µM"},
      {"measurement": "MIC", "setting": "S. pneumoniae; S. pneumoniae Clinical isolate I-104", "value": 160, "unit": "µM"},
      {"measurement": "MIC", "setting": "S. pneumoniae; S. pneumoniae Clinical isolate PJ1354", "value": 10, "unit": "µM"},
      {"measurement": "MIC", "setting": "S. pneumoniae; S. pneumoniae D39", "value": 5, "unit": "µM"},
      {"measurement": "MIC", "setting": "S. pneumoniae; S. pneumoniae TIGR4", "value": 2.5, "unit": "µM"},
      {"measurement": "MIC", "setting": "S. pyogenes", "value": 5, "unit": "µM"},
      {"measurement": "MIC", "setting": "P. aeruginosa; P. aeruginosa ATCC 27853", "value": 160, "unit": "µM"},
      {"measurement": "MIC", "setting": "P. aeruginosa; P. aeruginosa Clinical isolate 10.5", "value": 40, "unit": "µM"},
      {"measurement": "MIC", "setting": "P. aeruginosa; P. aeruginosa Clinical isolate 13.2", "value": 40, "unit": "µM"},
      {"measurement": "MIC", "setting": "P. aeruginosa; P. aeruginosa Clinical isolate 23.1", "value": 40, "unit": "µM"},
      {"measurement": "MIC", "setting": "P. aeruginosa; P. aeruginosa Clinical isolate 27.1", "value": "> 160", "unit": "µM"},
      {"measurement": "MIC", "setting": "P. aeruginosa; P. aeruginosa Clinical isolate 51.1", "value": 80, "unit": "µM"},
      {"measurement": "MIC", "setting": "P. aeruginosa; P. aeruginosa Clinical isolate 62.1", "value": 20, "unit": "µM"},
      {"measurement": "MIC", "setting": "P. aeruginosa; P. aeruginosa Clinical isolate 15159", "value": 20, "unit": "µM"},
      {"measurement": "MIC", "setting": "P. aeruginosa; P. aeruginosa Clinical isolate 18488", "value": 20, "unit": "µM"},
      {"measurement": "MIC", "setting": "E. coli", "value": 20, "unit": "µM"},
      {"measurement": "MIC", "setting": "E. coli; E. coli Clinical isolate 47.1", "value": 20, "unit": "µM"},
      {"measurement": "MIC", "setting": "E. coli; E. coli Clinical isolate 49.1", "value": 10, "unit": "µM"}
    ]}
  ]
}
